According to US4988677A, “Macrolide antibiotic and its use as a medicinal agent” (Hoechst Aktiengesellschaft, priority 1986, dated 1991):

Key:
[1] = system: Mycoplasma gallinarum; assay: laboratory agar plate tests, antimicrobial spectrum; type: cell-based; details: strains of Mycoplasma gallinarum
Description: (§1) The minimum inhibitory concentration (MIC) of swalpamycin has been determined for various microorganisms.

[2] = system: Streptococcus pyogenes; assay: as above; type: cell-based; details: strains of Streptococcus pyogenes
Description: as §1

[3] = system: Mycoplasma pulmonis; assay: as above; type: cell-based; details: strains of Mycoplasma pulmonis
Description: as §1

[4] = system: Streptococcus faecalis; assay: as above; type: cell-based; details: sensitive and resistant strains of Streptococcus faecalis
Description: as §1

[5] = system: Staphylococcus aureus; assay: as above; type: cell-based; details: sensitive and resistant strains of Staphylococcus aureus
Description: as §1

[6] = system: Bacillus subtilis; assay: as above; type: cell-based; details: strains of Bacillus subtilis
Description: as §1

[7] = system: Sarcina lutea; assay: as above; type: cell-based; details: strains of Sarcina lutea
Description: as §1

[8] = system: Micrococcus luteus; assay: as above; type: cell-based; details: strains of Micrococcus luteus
Description: as §1

[9] = system: mycoplasma; assay: antimycoplasma activity; type: cell-based
Description: as §1

[10] = system: S. aureus 209P; assay: MIC of swalpamycin, agar plate test; type: cell-based, Staphylococcus aureus
Description: as §1

[11] = system: Strept. faecalis Eder:Mac^R; assay: MIC of swalpamycin, agar plate test; type: cell-based, Streptococcus faecalis; details: Strept. faecalis Eder:Mac^R (Mac = macrolide)
Description: (§2) The minimum inhibitory concentration (MIC) of swalpamycin has been determined for various microorganisms. The results are to be found in Table I which follows:
(§3) *Mac = macrolide, Em = erythromycin, Meth = methicillin

[12] = system: S. aureus 712 Meth^R; assay: MIC of swalpamycin, agar plate test; type: cell-based, Staphylococcus aureus; details: S. aureus 712 Meth^R (Meth = methicillin)
Description: as §2, §3

[13] = system: S. aureus R85/M, Em^R; assay: MIC of swalpamycin, agar plate test; type: cell-based, Staphylococcus aureus; details: Em^R (Em = erythromycin)
Description: as §2, §3

[14] = system: S. aureus MLS 16,Em^R; assay: MIC of swalpamycin, agar plate test; type: cell-based, Staphylococcus aureus; details: S. aureus MLS 16,Em^R (Em = erythromycin)
Description: as §2, §3

[15] = system: S. aureus 20424 Mac^R; assay: MIC of swalpamycin, agar plate test; type: cell-based, Staphylococcus aureus; details: S. aureus 20424 Mac^R (Mac = macrolide)
Description: as §2, §3

[16] = system: S. aureus MLS 14,Em^R; assay: MIC of swalpamycin, agar plate test; type: cell-based, Staphylococcus aureus; details: S. aureus MLS 14,Em^R (Em = erythromycin)
Description: as §2, §3

[17] = system: S. aureus 789 Meth.^R; assay: MIC of swalpamycin, agar plate test; type: cell-based, Staphylococcus aureus; details: S. aureus 789 Meth.^R (Meth = methicillin)
Description: as §2, §3

[18] = system: S. aureus MLS 11,Em^R; assay: MIC of swalpamycin, agar plate test; type: cell-based, Staphylococcus aureus; details: S. aureus MLS 11,Em^R (Em = erythromycin)
Description: as §2, §3

[19] = system: S. aureus R 85,Em^R; assay: MIC of swalpamycin, agar plate test; type: cell-based, Staphylococcus aureus; details: S. aureus R 85,Em^R (Em = erythromycin)
Description: as §2, §3

[20] = system: S. aureus 3066 Meth.^R; assay: MIC of swalpamycin, agar plate test; type: cell-based, Staphylococcus aureus; details: S. aureus 3066 Meth.^R (Meth = methicillin)
Description: as §2, §3

[21] = system: Strept. faecalis UD 86; assay: MIC of swalpamycin, agar plate test; type: cell-based, Streptococcus faecalis
Description: as §1

[22] = system: Candida albicans; assay: MIC of swalpamycin, agar plate test; type: cell-based
Description: as §1

[23] = system: E. coli ESS 2231; assay: MIC of swalpamycin, agar plate test; type: cell-based
Description: as §1

[24] = system: Ps. aeruginosa M 35; assay: MIC of swalpamycin, agar plate test; type: cell-based
Description: as §1

[25] = system: Ent. cloacae; assay: MIC of swalpamycin, agar plate test; type: cell-based
Description: as §1

[26] = system: Prov. stuartii; assay: MIC of swalpamycin, agar plate test; type: cell-based
Description: as §1

[27] = system: E. coli 9632; assay: MIC of swalpamycin, agar plate test; type: cell-based
Description: as §1

[28] = system: Cit. freundii; assay: MIC of swalpamycin, agar plate test; type: cell-based
Description: as §1

[29] = system: Pr. vulgaris; assay: MIC of swalpamycin, agar plate test; type: cell-based
Description: as §1

[30] = system: Bacillus subtilis; assay: MIC of swalpamycin, agar plate test; type: cell-based
Description: as §1

[31] = system: Sarcina lutea; assay: MIC of swalpamycin, agar plate test; type: cell-based
Description: as §1

[32] = system: Micrococcus luteus; assay: MIC of swalpamycin, agar plate test; type: cell-based
Description: as §1

[33] = solubility; type: physicochemical
Description: Swalpamycin is a colorless amorphous powder which is soluble in methanol, ethanol, n-propanol, isopropanol, n-butanol, ethyl acetate, n-butyl acetate, acetone, ethyl methyl ketone, methyl isobutyl ketone, methylene chloride, chloroform, dimethylformamide and dimethyl sulfoxide.

[34] = system: Gram-positive bacteria, including erythromycin-resistant strains; assay: antibacterial activity; type: cell-based
Description: as §1

For COC1C(OCC2/C=C/C=C/C(=O)C(C)CC(C)C(OC3OC(C)CC4(OC(=O)OC4C)C3O)C(C)/C=C/C(=O)OC2C)OC(C)C(O)C1OC (stereo not drawn) [Swalpamycin, swalpamycin], the “antimicrobial activity in vitro” value [1] was “acts in vitro”, the “antimicrobial activity in vitro” value [2] was “acts in vitro” and the “antimicrobial activity in vitro” value [3] was “acts in vitro”. The “antimicrobial activity in vitro” value [4] was “acts in vitro against sensitive and resistant strains”, the “antimicrobial activity in vitro” value [5] was “acts in vitro against sensitive and resistant strains” and the “antimicrobial activity in vitro” value [6] was “acts in vitro”. For the same compound, the “antimicrobial activity in vitro” value [7] was “acts in vitro”, the “antimicrobial activity in vitro” value [8] was “acts in vitro” and the activity [9] was “active”. The “minimum inhibitory concentration (MIC)” value [10] was 6.3, the “minimum inhibitory concentration (MIC)” value [11] was over 50 and the “minimum inhibitory concentration (MIC)” value [12] was 12.5. For the same compound, the “minimum inhibitory concentration (MIC)” value [13] was over 50, the “minimum inhibitory concentration (MIC)” value [14] was 12.5 and the “minimum inhibitory concentration (MIC)” value [15] was 50. For the same compound, the “minimum inhibitory concentration (MIC)” value [16] was 25, the “minimum inhibitory concentration (MIC)” value [17] was over 50 and the “minimum inhibitory concentration (MIC)” value [18] was 25. The “minimum inhibitory concentration (MIC)” value [19] was 12.5, the “minimum inhibitory concentration (MIC)” value [20] was 3.2 and the “minimum inhibitory concentration (MIC)” value [21] was over 50. The “minimum inhibitory concentration (MIC)” value [22] was over 50, the “minimum inhibitory concentration (MIC)” value [23] was over 50 and the “minimum inhibitory concentration (MIC)” value [24] was over 50. The “minimum inhibitory concentration (MIC)” value [25] was over 50, the “minimum inhibitory concentration (MIC)” value [26] was over 50 and the “minimum inhibitory concentration (MIC)” value [27] was over 50. The “minimum inhibitory concentration (MIC)” value [28] was over 50, the “minimum inhibitory concentration (MIC)” value [29] was over 50 and the “minimum inhibitory concentration (MIC)” value [30] was 0.1. The “minimum inhibitory concentration (MIC)” value [31] was 0.2, the “minimum inhibitory concentration (MIC)” value [32] was 1.6 and the “solubility in hexane and petroleum ether” value ([33]; hexane, petroleum ether (40°-60°)) was “sparingly soluble or insoluble”. For the same compound, the “solubility in organic solvents” value ([33]; methanol, ethanol, n-propanol, isopropanol, n-butanol, ethyl acetate, n-butyl acetate, acetone, ethyl methyl ketone, methyl isobutyl ketone, methylene chloride, chloroform, dimethylformamide, dimethyl sulfoxide) was “soluble”, the solubility in water ([33]; water) was “sparingly soluble or insoluble” and the activity [34] was “active”.
